# Measurements: paper PMC10247784, “Physiological activation of human and mouse bitter taste receptors by bile acids” (Communications Biology, 2023)
# “And” between values parts separate entries of the source, which are not always exact repeats. Identical values can stand only once.
# Molecular target: T1, human TAS2R14 (Homo sapiens, UniProt Q9NYV8)
# T1 construct: expressed in transfected cells; host or cells: HEK293T-Gα16gust44
# T1 sequence (Q9NYV8 1-317): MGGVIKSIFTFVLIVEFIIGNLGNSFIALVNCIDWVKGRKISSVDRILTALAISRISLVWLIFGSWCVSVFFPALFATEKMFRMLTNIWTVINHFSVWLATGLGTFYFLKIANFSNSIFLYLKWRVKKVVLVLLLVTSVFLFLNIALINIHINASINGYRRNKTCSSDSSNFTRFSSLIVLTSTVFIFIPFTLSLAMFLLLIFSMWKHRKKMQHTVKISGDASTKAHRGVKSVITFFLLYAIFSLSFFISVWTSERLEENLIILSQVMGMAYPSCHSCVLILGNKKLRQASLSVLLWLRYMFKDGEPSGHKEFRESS
# Test: Calcium imaging assay (FLIPR), HEK293T-Gα16gust44 cells transfected with human TAS2R14
# Assay type: cell-based
# Conditions: for RLU: TAS2R14 trace
# Description: This set of bile acids was chosen because of their commercial availability in high purities, their diversity within the class of bile acids and their previous detection and quantitation in human blood. Stock solutions were prepared in DMSO.
# As basal growth medium for the HEK293T-Gα16gust44 cell line[17],[59] served Dulbecco’s modified eagle medium (DMEM) (Thermo Fisher Scientific, Darmstadt, Germany) supplemented with 10 % fetal bovine serum (Sigma-Aldrich, Steinheim, Germany), 2 mM L-glutamine (Sigma-Aldrich, Steinheim, Germany), 100 units/ml penicillin (Sigma Aldrich, Steinheim, Germany) and 100 µg/ml streptomycin (Sigma Aldrich, Steinheim, Germany). Growth conditions were 37 °C, 5 % CO2 and saturated air-humidity[60].
# HEK293T-Gα16gust44 cells were seeded on poly-D-lysine (10 µg/ml) coated 96-well plates to reach a confluence of 40-60 % the next day. For transient transfection 150 ng of plasmid DNA containing the receptor of interest and 0.3 µl lipofectamine 2000 (Thermo Fisher Scientific, Darmstadt, Germany) per well were used and transfection took place according to the manual of lipofectamine 2000. […] The empty vector DNA (mock) was transfected as negative control[14],[41].
# Cells were loaded using the calcium-sensitive fluorescent dye Fluo-4-AM (Abcam, Cambridge, Great Britain) in the presence of 2.5 mM probenecid (Sigma-Aldrich, Steinheim, Germany) the day after transfection[13],[41]. 1 h after loading, cells were washed with C1 buffer using a BioTek Cell Washer, incubated in the dark for half an hour and washed again. For automated agonist application and measurement of fluorescence changes, a FLIPR^TETRA device (Molecular Devices, San José, United States) was used. Viability of cells was tested by application of 100 nM Somatostatin 14 (Bachem, Bubendorf, Switzerland)[42].
# Measured data were negative control corrected by subtracting the signal of the mock-transfected cells and exported to Microsoft Excel using the FLIPR software ScreenWorks 4.2. In Microsoft Excel software, standardization of maximum fluorescence intensities to the basal fluorescence and normalization to the buffer-only control was done to calculate the relative fluorescence changes (ΔF/F).
# Initial screening experiments performed in duplicate wells were confirmed by at least one replication and representative traces were selected for display. All dose-response relationships were determined by three independent experiments (biological replicates) performed in duplicates (technical replicates). Threshold concentrations, defined as lowest substance concentrations leading to statistically significant elevated fluorescence changes in receptor-transfected cells compared with empty vector-transfected cells, were determined using SigmaPlot with Student’s t-test to evaluate statistical significance (p < 0.01).
structure (smiles),measurement,setting,value
"C[C@H](CCC(=O)NCCS(=O)(=O)O)[C@H]1CC[C@H]2[C@@H]3CC[C@@H]4C[C@H](O)CC[C@]4(C)[C@H]3CC[C@]12C [Taurolithocholic Acid, taurolithocholic acid]",Efficacy = maximal amplitude (ΔF/F),"TAS2R14, bile acids, mean",0.07188
same,"Efficacy (maximal amplitude ΔF/F), individual data points","TAS2R14, bile acids, single replicates, listed as TLCA",0.06981 and 0.08988 and 0.05106
same,RLU,Time (s) 0,0 RLU
same,RLU,Time (s) 2 (Taurocholic Acid 2.016),5.076 RLU
same,RLU,Time (s) 4 (Taurocholic Acid 4.016),-5.108 RLU
same,RLU,Time (s) 6 (Taurocholic Acid 6.016),-10.1397 RLU
same,RLU,Time (s) 8 (Taurocholic Acid 8.016),-25.9369 RLU
same,RLU,Time (s) 12 (Taurocholic Acid 12.016),-47.2431 RLU
same,RLU,Time (s) 14 (Taurocholic Acid 14.016),-37.8259 RLU
same,RLU,Time (s) 16 (Taurocholic Acid 16.016),-67.1139 RLU
same,RLU,Time (s) 18 (Taurocholic Acid 18.016),-63.8827 RLU
same,RLU,Time (s) 18.797 (Chenodeoxycholic Acid 18.765),-68.311 RLU
same,RLU,Time (s) 20.797 (Chenodeoxycholic Acid 20.781),-66.196 RLU
same,RLU,Time (s) 22.797 (Chenodeoxycholic Acid 22.781),-50.0226 RLU
same,RLU,Time (s) 24.797 (Chenodeoxycholic Acid 24.781),-48.2767 RLU
same,RLU,Time (s) 26.797 (Chenodeoxycholic Acid 26.781),-41.6616 RLU
same,RLU,Time (s) 28.797 (Chenodeoxycholic Acid 28.781),-45.6719 RLU
same,RLU,Time (s) 30.797 (Chenodeoxycholic Acid 30.781),-13.6241 RLU
same,RLU,Time (s) 32.797 (Chenodeoxycholic Acid 32.781),14.5625 RLU
same,RLU,Time (s) 34.797 (Chenodeoxycholic Acid 34.781),34.5332 RLU
same,RLU,Time (s) 36.797 (Chenodeoxycholic Acid 36.781),37.8124 RLU
same,RLU,Time (s) 38.797 (Chenodeoxycholic Acid 38.781),50.8625 RLU
same,RLU,Time (s) 40.797 (Chenodeoxycholic Acid 40.781),58.2474 RLU
same,RLU,Time (s) 42.797 (Chenodeoxycholic Acid 42.781),67.9279 RLU
same,RLU,Time (s) 44.797 (Chenodeoxycholic Acid 44.781),76.8016 RLU
same,RLU,Time (s) 46.797 (Chenodeoxycholic Acid 46.781),99.8168 RLU
same,RLU,Time (s) 48.797 (Chenodeoxycholic Acid 48.781),113.593 RLU
same,RLU,Time (s) 50.797 (Chenodeoxycholic Acid 50.781),125.702 RLU
same,RLU,Time (s) 52.797 (Chenodeoxycholic Acid 52.781),143.488 RLU
same,RLU,Time (s) 54.797 (Chenodeoxycholic Acid 54.781),148.335 RLU
same,RLU,Time (s) 56.797 (Chenodeoxycholic Acid 56.781),163.155 RLU
same,RLU,Time (s) 58.797 (Chenodeoxycholic Acid 58.781),176.389 RLU
same,RLU,Time (s) 60.797 (Chenodeoxycholic Acid 60.781),197.723 RLU
same,RLU,Time (s) 62.797 (Chenodeoxycholic Acid 62.781),213.291 RLU
same,RLU,Time (s) 64.797 (Chenodeoxycholic Acid 64.781),213.968 RLU
same,RLU,Time (s) 66.797 (Chenodeoxycholic Acid 66.781),225.512 RLU
same,RLU,Time (s) 68.797 (Chenodeoxycholic Acid 68.781),237.861 RLU
same,RLU,Time (s) 70.797 (Chenodeoxycholic Acid 70.781),234.615 RLU
same,RLU,Time (s) 72.797 (Chenodeoxycholic Acid 72.781),231.58 RLU
same,RLU,Time (s) 74.797 (Chenodeoxycholic Acid 74.781),268.946 RLU
same,RLU,Time (s) 76.797 (Chenodeoxycholic Acid 76.781),267.933 RLU
same,RLU,Time (s) 78.797 (Chenodeoxycholic Acid 78.781),291.733 RLU
same,RLU,Time (s) 80.797 (Chenodeoxycholic Acid 80.781),290.533 RLU
same,RLU,Time (s) 82.797 (Chenodeoxycholic Acid 82.781),307.412 RLU
same,RLU,Time (s) 84.797 (Chenodeoxycholic Acid 84.781),297.633 RLU
same,RLU,Time (s) 86.797 (Chenodeoxycholic Acid 86.781),303.737 RLU
same,RLU,Time (s) 88.797 (Chenodeoxycholic Acid 88.781),299.661 RLU
same,RLU,Time (s) 90.797 (Chenodeoxycholic Acid 90.781),303.944 RLU
same,RLU,Time (s) 92.797 (Chenodeoxycholic Acid 92.781),328.349 RLU
same,RLU,Time (s) 94.797 (Chenodeoxycholic Acid 94.781),307.307 RLU
same,RLU,Time (s) 96.797 (Chenodeoxycholic Acid 96.781),314.559 RLU
same,RLU,Time (s) 98.797 (Chenodeoxycholic Acid 98.781),326.967 RLU
same,RLU,Time (s) 100.797 (Chenodeoxycholic Acid 100.781),302.894 RLU
same,RLU,Time (s) 102.797 (Chenodeoxycholic Acid 102.781),324.498 RLU
same,RLU,Time (s) 104.797 (Chenodeoxycholic Acid 104.781),347.898 RLU
same,RLU,Time (s) 106.797 (Chenodeoxycholic Acid 106.781),338.946 RLU
same,RLU,Time (s) 108.797 (Chenodeoxycholic Acid 108.781),361.614 RLU
same,RLU,Time (s) 110.797 (Chenodeoxycholic Acid 110.781),335.334 RLU
same,RLU,Time (s) 112.797 (Chenodeoxycholic Acid 112.781),367.933 RLU
same,RLU,Time (s) 114.797 (Chenodeoxycholic Acid 114.781),388.996 RLU
same,RLU,Time (s) 116.797 (Chenodeoxycholic Acid 116.781),373.414 RLU
same,RLU,Time (s) 118.797 (Chenodeoxycholic Acid 118.781),374.133 RLU
same,RLU,Time (s) 120.797 (Chenodeoxycholic Acid 120.781),378.298 RLU
same,RLU,Time (s) 122.797 (Chenodeoxycholic Acid 122.781),394.755 RLU
same,RLU,Time (s) 124.797 (Chenodeoxycholic Acid 124.781),385.131 RLU
same,RLU,Time (s) 126.797 (Chenodeoxycholic Acid 126.781),394.257 RLU
same,RLU,Time (s) 128.797 (Chenodeoxycholic Acid 128.781),394.724 RLU
same,RLU,Time (s) 130.797 (Chenodeoxycholic Acid 130.781),379.935 RLU
same,RLU,Time (s) 132.797 (Chenodeoxycholic Acid 132.781),394.817 RLU
same,RLU,Time (s) 134.797 (Chenodeoxycholic Acid 134.781),375.334 RLU
same,RLU,Time (s) 136.797 (Chenodeoxycholic Acid 136.781),397.788 RLU
same,RLU,"Time (s) 137.562 (Taurocholic Acid 137.563, Chenodeoxycholic Acid 137.546)",382.953 RLU
same,RLU,"Time (s) 143.578 (Taurocholic Acid 143.563, Chenodeoxycholic Acid 143.546)",394.002 RLU
same,RLU,"Time (s) 149.578 (Taurocholic Acid 149.563, Chenodeoxycholic Acid 149.546)",363.524 RLU
same,RLU,"Time (s) 155.578 (Taurocholic Acid 155.563, Chenodeoxycholic Acid 155.546)",370.686 RLU
same,RLU,"Time (s) 161.578 (Taurocholic Acid 161.563, Chenodeoxycholic Acid 161.546)",390.532 RLU
same,RLU,"Time (s) 167.578 (Taurocholic Acid 167.563, Chenodeoxycholic Acid 167.546)",378.911 RLU
same,RLU,"Time (s) 173.578 (Taurocholic Acid 173.563, Chenodeoxycholic Acid 173.546)",356.99 RLU
same,RLU,"Time (s) 179.578 (Taurocholic Acid 179.563, Chenodeoxycholic Acid 179.546)",351.344 RLU
same,RLU,"Time (s) 191.578 (Taurocholic Acid 191.563, Chenodeoxycholic Acid 191.546)",317.716 RLU
same,RLU,"Time (s) 197.578 (Taurocholic Acid 197.563, Chenodeoxycholic Acid 197.546)",291.899 RLU
same,RLU,"Time (s) 209.578 (Taurocholic Acid 209.563, Chenodeoxycholic Acid 209.546)",252.636 RLU
same,RLU,"Time (s) 221.578 (Taurocholic Acid 221.563, Chenodeoxycholic Acid 221.546)",195.665 RLU
same,RLU,"Time (s) 233.578 (Taurocholic Acid 233.563, Chenodeoxycholic Acid 233.546)",155.879 RLU
same,RLU,"Time (s) 239.578 (Taurocholic Acid 239.563, Chenodeoxycholic Acid 239.546)",121.06 RLU
same,RLU,"Time (s) 245.578 (Taurocholic Acid 245.563, Chenodeoxycholic Acid 245.546)",124.983 RLU
same,RLU,"Time (s) 293.578 (Taurocholic Acid 293.563, Chenodeoxycholic Acid 293.546)",26.9674 RLU
same,RLU,"Time (s) 299.578 (Taurocholic Acid 299.563, Chenodeoxycholic Acid 299.546)",2.882 RLU
same,RLU,"Time (s) 305.578 (Taurocholic Acid 305.563, Chenodeoxycholic Acid 305.546)",10.8603 RLU
same,RLU,"Time (s) 311.578 (Taurocholic Acid 311.563, Chenodeoxycholic Acid 311.546)",-14.8461 RLU
same,RLU,"Time (s) 317.578 (Taurocholic Acid 317.563, Chenodeoxycholic Acid 317.546)",-4.053 RLU
same,RLU,"Time (s) 323.578 (Taurocholic Acid 323.563, Chenodeoxycholic Acid 323.546)",-64.2935 RLU
same,RLU,"Time (s) 329.578 (Taurocholic Acid 329.563, Chenodeoxycholic Acid 329.546)",-47.603 RLU
same,RLU,"Time (s) 335.578 (Taurocholic Acid 335.563, Chenodeoxycholic Acid 335.546)",-52.8312 RLU
same,RLU,"Time (s) 341.578 (Taurocholic Acid 341.563, Chenodeoxycholic Acid 341.546)",-81.682 RLU
same,RLU,"Time (s) 347.578 (Taurocholic Acid 347.563, Chenodeoxycholic Acid 347.546)",-84.764 RLU
same,RLU,"Time (s) 353.578 (Taurocholic Acid 353.563, Chenodeoxycholic Acid 353.546)",-78.8648 RLU
same,RLU,"Time (s) 359.578 (Taurocholic Acid 359.563, Chenodeoxycholic Acid 359.546)",-73.3268 RLU
same,Activation threshold concentration TAS2R14,lowest concentration with significantly increased fluorescence vs empty vector (p < 0.01),0.3 µM
